In brackets after ≈: the same amount, converted by molar mass. One block for each compound: values may come before it.
What was measured:
[1] = system: Staphylococcus epidermidis; assay: Antibacterial activity against Staphylococcus epidermidis ATCC 35547 assessed as effect on planktonic growth at 5.5 ug/ml after 20 hrs relative to control; format: functional
[2] = system: Streptococcus mutans; assay: Antibacterial activity against Streptococcus mutans ATCC 25175 assessed as effect on planktonic growth at 21.9 ug/ml after 20 hrs relative to control; format: functional
[3] = system: Staphylococcus epidermidis; assay: Antibacterial activity against Staphylococcus epidermidis ATCC 35547 assessed as effect on planktonic growth at 87.5 ug/ml after 20 hrs relative to control; format: functional
[4] = system: Staphylococcus epidermidis; assay: Antibacterial activity against Staphylococcus epidermidis ATCC 35547 assessed as effect on planktonic growth at 10.9 ug/ml after 20 hrs relative to control; format: functional
[5] = system: Staphylococcus aureus; assay: Antibacterial activity against Staphylococcus aureus ATCC 25923 assessed as effect on planktonic growth at 1.37 ug/ml after 20 hrs relative to control; format: functional
[6] = system: Staphylococcus aureus; assay: Antibacterial activity against Staphylococcus aureus ATCC 25923 assessed as effect on planktonic growth at 10.9 ug/ml after 20 hrs relative to control; format: functional
[7] = system: Streptococcus mutans; assay: Antibacterial activity against Streptococcus mutans ATCC 25175 assessed as effect on planktonic growth at 0.17 ug/ml after 20 hrs relative to control; format: functional
[8] = system: Pseudomonas aeruginosa; assay: Antibacterial activity against Pseudomonas aeruginosa ATCC 27853 assessed as effect on planktonic growth at 2.73 ug/ml after 20 hrs relative to control; format: functional
[9] = system: Staphylococcus aureus; assay: Antibacterial activity against Staphylococcus aureus ATCC 25923 assessed as effect on planktonic growth at 21.9 ug/ml after 20 hrs relative to control; format: functional
[10] = system: Pseudomonas aeruginosa; assay: Antibacterial activity against Pseudomonas aeruginosa ATCC 27853 assessed as effect on planktonic growth at 5.5 ug/ml after 20 hrs relative to control; format: functional
[11] = system: Streptococcus mutans; assay: Antibacterial activity against Streptococcus mutans ATCC 25175 assessed as effect on planktonic growth at 43.8 ug/ml after 20 hrs relative to control; format: functional
[12] = system: Pseudomonas aeruginosa; assay: Antibacterial activity against Pseudomonas aeruginosa ATCC 27853 assessed as effect on planktonic growth at 43.8 ug/ml after 20 hrs relative to control; format: functional
[13] = system: Pseudomonas aeruginosa; assay: Antibacterial activity against Pseudomonas aeruginosa ATCC 27853 assessed as effect on planktonic growth at 0.34 ug/ml after 20 hrs relative to control; format: functional
[14] = system: Staphylococcus aureus; assay: Antibacterial activity against Staphylococcus aureus ATCC 25923 assessed as effect on planktonic growth at 0.34 ug/ml after 20 hrs relative to control; format: functional
[15] = system: Staphylococcus epidermidis; assay: Antibacterial activity against Staphylococcus epidermidis ATCC 35547 assessed as effect on planktonic growth at 2.73 ug/ml after 20 hrs relative to control; format: functional
[16] = system: Staphylococcus epidermidis; assay: Antibacterial activity against Staphylococcus epidermidis ATCC 35547 assessed as effect on planktonic growth at 0.34 ug/ml after 20 hrs relative to control; format: functional
[17] = system: Pseudomonas aeruginosa; assay: Antibacterial activity against Pseudomonas aeruginosa ATCC 27853 assessed as inhibition of biofilm formation after 20 hrs by crystal-violet staining method; format: functional, organism-based; conditions: for IC50: ATCC 27853, 20 h
[18] = system: Pseudomonas aeruginosa; assay: Antibacterial activity against Pseudomonas aeruginosa ATCC 27853 assessed as effect on planktonic growth at 10.9 ug/ml after 20 hrs relative to control; format: functional
[19] = system: Streptococcus mutans; assay: Antibacterial activity against Streptococcus mutans ATCC 25175 assessed as effect on planktonic growth at 10.9 ug/ml after 20 hrs relative to control; format: functional
[20] = system: Staphylococcus aureus; assay: Antibacterial activity against Staphylococcus aureus ATCC 25923 assessed as effect on planktonic growth at 2.73 ug/ml after 20 hrs relative to control; format: functional
[21] = system: Staphylococcus aureus; assay: Antibacterial activity against Staphylococcus aureus ATCC 25923 assessed as effect on planktonic growth at 0.68 ug/ml after 20 hrs relative to control; format: functional
[22] = system: Staphylococcus aureus; assay: Antibacterial activity against Staphylococcus aureus ATCC 25923 assessed as effect on planktonic growth at 43.8 ug/ml after 20 hrs relative to control; format: functional
[23] = system: Staphylococcus epidermidis; assay: Antibacterial activity against Staphylococcus epidermidis ATCC 35547 assessed as effect on planktonic growth at 1.37 ug/ml after 20 hrs relative to control; format: functional
[24] = system: Staphylococcus epidermidis; assay: Antibacterial activity against Staphylococcus epidermidis ATCC 35547 assessed as inhibition of biofilm formation after 20 hrs by crystal-violet staining method; format: functional, organism-based; conditions: for IC50: ATCC 35547, 20 h
[25] = system: Pseudomonas aeruginosa; assay: Antibacterial activity against Pseudomonas aeruginosa ATCC 27853 assessed as effect on planktonic growth at 0.68 ug/ml after 20 hrs relative to control; format: functional
[26] = system: Streptococcus mutans; assay: Antibacterial activity against Streptococcus mutans ATCC 25175 assessed as effect on planktonic growth at 2.73 ug/ml after 20 hrs relative to control; format: functional
[27] = system: Pseudomonas aeruginosa; assay: Antibacterial activity against Pseudomonas aeruginosa ATCC 27853 assessed as effect on planktonic growth at 87.5 ug/ml after 20 hrs relative to control; format: functional
[28] = system: Staphylococcus epidermidis; assay: Antibacterial activity against Staphylococcus epidermidis ATCC 35547 assessed as effect on planktonic growth at 0.68 ug/ml after 20 hrs relative to control; format: functional
[29] = system: Staphylococcus aureus; assay: Antibacterial activity against Staphylococcus aureus ATCC 25923 assessed as effect on planktonic growth at 87.5 ug/ml after 20 hrs relative to control; format: functional
[30] = system: Pseudomonas aeruginosa; assay: Antibacterial activity against Pseudomonas aeruginosa ATCC 27853 assessed as effect on planktonic growth at 1.37 ug/ml after 20 hrs relative to control; format: functional
[31] = system: Staphylococcus aureus; assay: Antibacterial activity against Staphylococcus aureus ATCC 25923 assessed as effect on planktonic growth at 0.17 ug/ml after 20 hrs relative to control; format: functional
[32] = system: Pseudomonas aeruginosa; assay: Antibacterial activity against Pseudomonas aeruginosa ATCC 27853 assessed as effect on planktonic growth at 21.9 ug/ml after 20 hrs relative to control; format: functional
[33] = system: Staphylococcus epidermidis; assay: Antibacterial activity against Staphylococcus epidermidis ATCC 35547 assessed as effect on planktonic growth at 21.9 ug/ml after 20 hrs relative to control; format: functional
[34] = system: Streptococcus mutans; assay: Antibacterial activity against Streptococcus mutans ATCC 25175 assessed as effect on planktonic growth at 1.37 ug/ml after 20 hrs relative to control; format: functional
[35] = system: Staphylococcus epidermidis; assay: Antibacterial activity against Staphylococcus epidermidis ATCC 35547 assessed as effect on planktonic growth at 43.8 ug/ml after 20 hrs relative to control; format: functional
[36] = system: Streptococcus mutans; assay: Antibacterial activity against Streptococcus mutans ATCC 25175 assessed as effect on planktonic growth at 5.5 ug/ml after 20 hrs relative to control; format: functional
[37] = system: Staphylococcus epidermidis; assay: Antibacterial activity against Staphylococcus epidermidis ATCC 35547 assessed as effect on planktonic growth at 0.17 ug/ml after 20 hrs relative to control; format: functional
[38] = system: Streptococcus mutans; assay: Antibacterial activity against Streptococcus mutans ATCC 25175 assessed as effect on planktonic growth at 0.34 ug/ml after 20 hrs relative to control; format: functional
[39] = system: Staphylococcus aureus; assay: Antibacterial activity against Staphylococcus aureus ATCC 25923 assessed as effect on planktonic growth at 5.5 ug/ml after 20 hrs relative to control; format: functional
[40] = system: Pseudomonas aeruginosa; assay: Antibacterial activity against Pseudomonas aeruginosa ATCC 27853 assessed as effect on planktonic growth at 0.17 ug/ml after 20 hrs relative to control; format: functional
[41] = system: Streptococcus mutans; assay: Antibacterial activity against Streptococcus mutans ATCC 25175 assessed as effect on planktonic growth at 87.5 ug/ml after 20 hrs relative to control; format: functional
[42] = system: Streptococcus mutans; assay: Antibacterial activity against Streptococcus mutans ATCC 25175 assessed as effect on planktonic growth at 0.68 ug/ml after 20 hrs relative to control; format: functional

IC50 [17]: > 87.5 µg/mL
IC50 [24]: > 87.5 µg/mL
SMILES: COc1ccccc1C1=C(Br)C(=O)O/C1=C\c1ccc(C(F)(F)F)cc1
Activity [1]: -9.1%
Activity [2]: 0.6%
Activity [3]: 14.7%
Activity [4]: 10.3%
Activity [5]: -0.5%
Activity [6]: 9.7%
Activity [7]: -3.1%
Activity [8]: -7%
Activity [9]: 26.7%
Activity [10]: 7.9%
Activity [11]: 21.5%
Activity [12]: 34.3%
Activity [13]: -0.4%
Activity [14]: -2%
Activity [15]: 12.9%
Activity [16]: -14.8%
inhibition [17]: Dose-dependent effect
Activity [18]: 49.9%
Activity [19]: -9.3%
Activity [20]: 6.6%
Activity [21]: -2.3%
Activity [22]: 47.3%
Activity [23]: 2.9%
inhibition [24]: Dose-dependent effect
Activity [25]: -1.3%
Activity [26]: -4%
Activity [27]: 15.1%
Activity [28]: -16.5%
Activity [29]: 81.2%
Activity [30]: -5.7%
Activity [31]: -3.6%
Activity [32]: 58%
Activity [33]: 18.7%
Activity [34]: -6.5%
Activity [35]: 30.7%
Activity [36]: -4.8%
Activity [37]: -12.1%
Activity [38]: 1.1%
Activity [39]: 9.9%
Activity [40]: -1.3%
Activity [41]: 58.9%
Activity [42]: -1.7%

IC50 [17]: > 87.5 µg/mL
IC50 [24]: 40 µg/mL (≈ 85 µM)
SMILES: COc1ccc(Br)cc1C1=C(Br)C(=O)O/C1=C\c1cccc(Cl)c1
Activity [1]: 1.6%
Activity [2]: -5.8%
Activity [3]: 28.4%
Activity [4]: 8.6%
Activity [5]: 27%
Activity [6]: 43.6%
Activity [7]: -1%
Activity [8]: -21.1%
Activity [9]: 43.1%
Activity [10]: -19.8%
Activity [11]: 0.5%
Activity [12]: -9.5%
Activity [13]: 0.3%
Activity [14]: 14.5%
Activity [15]: 0.1%
Activity [16]: -6.1%
inhibition [17]: Dose-dependent effect
Activity [18]: -16.9%
Activity [19]: 13.4%
Activity [20]: 30.1%
Activity [21]: 20%
Activity [22]: 75.8%
Activity [23]: -2.4%
inhibition [24]: Dose-dependent effect
Activity [25]: -3.1%
Activity [26]: 16.2%
Activity [27]: -7.3%
Activity [28]: -1.6%
Activity [29]: 121.6%
Activity [30]: -13.2%
Activity [31]: 13.8%
Activity [32]: -15%
Activity [33]: 8.8%
Activity [34]: 8.9%
Activity [35]: 20.6%
Activity [36]: 12.4%
Activity [37]: -1.7%
Activity [38]: 7.6%
Activity [39]: 36.6%
Activity [40]: 1.4%
Activity [41]: 14.9%
Activity [42]: 8.4%
